The values below come from patent publication US20100137344A1, “INDUCTION OF ANALGESIA IN NEUROPATHIC PAIN” (University Court of the University of Edinburgh, priority 2006, published 2010).

For this experiment, the system named is rats with chronic constriction injury (CCI) to sciatic nerve. As to the kind of experiment: Topical application to paws of CCI rats, behavioural reflex testing (thermal PWL, mechanical PWT). The settings on record: for % reversal of ipsilateral sensitisation, PWL / % reversal of ipsilateral sensitisation, PWT: 10-25 minutes after icilin. The format is in vivo, rat. As for the experimental part:
Pain models were generated under halothane anaesthesia (Zeneca, Cheshire, UK). For the chronic constriction injury (CCI) model of neuropathic pain, four ligatures were tied loosely to constrict the sciatic nerve at mid-thigh level (as described previously^[39]). An inflammatory pain model was generated by injecting 100 μl of Complete Freund's Adjuvant (CFA, Sigma-Aldrich Ltd) into the ventral surface of the right hindpaw^[39]. A model of peripheral demyelination-induced pain was produced by focal application of lysolecithin to the sciatic nerve^[40]. Peak behavioural sensitisation was observed post-surgically between days 10-16 for CCI, 1-3 for CFA, and 7-14 for lysolecithin, when pharmacological and electrophysiological experiments and tissue removal were conducted.
Thermal sensitivity was assessed by measuring paw withdrawal latency (PWL, s) in response to a noxious thermal stimulus (Hargreaves' thermal stimulator, Linton Instrumentation, Diss, UK) directed to the hindpaw mid-plantar glabrous surface. Mechanical sensitivity was recorded as the paw withdrawal threshold (PWT, mN/mm^2) to calibrated von Frey filaments (Stoelting, Ill., US), as previously described^[39]. Sensitivity to noxious cold was assessed by placing animals in a waterbath with an aluminium floor containing 1 cm deep 4° C. water and counting the time the paw was held suspended over a 20 s period.
Icilin was applied at concentrations of 2.5-500 μM (in water with 0.2% DMF), by placing CCI or naïve rats unrestrained for 5 min in a 1 cm deep waterbath (sufficient to cover paws), which was thermostatically controlled to a temperature of 30° C., or by very lightly anaesthetising rats and immersing hindpaws in small tubes containing 5 ml icilin (500 μM-5 mM, with a vehicle of 45% dimethylformamide in 0.2% aqueous Tween 80) for 5 min, followed by sensory testing for 60-80 mins. The effects of (−)-menthol and its stereoisomers isomenthol (1S,2R,5R-menthol,) and (+)-menthol (1S,2R,5S(+)-menthol) (4-16 mM in 80% ethanol) were also assessed. Relevant vehicles were always assessed in similar experiments. As a contrast, the effect of cinnamaldehyde (1.5 mM in water) and the effect of cinnamaldehyde with additional icilin (80 μM in water with 0.2% DMF) were assessed in naïve animals. The effects of icilin (80 μM) were further assessed in CCI animals that had undergone antisense and mis-sense treatment for knockdown of TRPM8 or immediately following intrathecal injection of either LY 341495 or UBP 1112. […] The effects of brief paw immersion at different temperatures (10-22° C. for 5 min) on CCI rats were assessed by mechanical testing. The effects of intrathecal LY 341495 or UBP 1112 on the reversal of ipsilateral sensitisation in CCI following a 16° C. cool challenge for 5 min were measured. Reflex testing commenced 5 minutes following challenge, unless animals had been anaesthetised, in which case 15 minutes was allowed for recovery. Six replicate animals were tested in all pharmacological experiments.
Antisense and mis-sense oligonucleotides were 22-mers with phosphorothioate bonds at the last two positions at 5′ and 3′ ends (MWG Biotech, Ebersberg, Germany). Antisense extended from base −10 to base +12 relative to the start of the open reading frame for the rat TRPM8 gene: 5′ C*T*CGAAGGACATCTTGCCGT*G*G 3′, where * represents phosphorothioate linkages. Mis-sense was designed with 4 inversions of C/G or A/T as appropriate at residues 3, 11, 14 and 22, preserving overall G/C content. BLAST searches of both oligonucleotides indicated no significant complementarity to any known gene sequence. 14-day or 7-day osmotic minipumps (for CCI experiments or naïve electrophysiology experiments respectively—Alzet Minipump, models 2002, 2001; Charles River, UK) containing oligonucleotides (1 μg/μl in sterile saline) were connected to canulae inserted under the dura of the spinal cord to level L5/6 and produced a predicted infusion rate of 0.5 μl/h. […]

Where [1] appears, read: icilin 80 μM topical, antisense-treated CCI animals.
The mark [2] stands for this setting: icilin 80 μM topical, mis-sense-treated CCI animals.
[3] abbreviates: icilin 1000 μM applied to paw, CCI Con, 15 mins.
[4] abbreviates: icilin 1000 μM applied to paw, CCI Con, 50 mins.
Setting [5] is: icilin 1000 μM applied to paw, CCI Ipsi, 15 mins.
The mark [6] stands for this setting: icilin 1000 μM applied to paw, CCI Ipsi, 50 mins.
Where [7] appears, read: icilin 2500 μM applied to paw, CCI Con, 15 mins.
Where [8] appears, read: icilin 2500 μM applied to paw, CCI Con, 50 mins.
Setting [9] is: icilin 2500 μM applied to paw, CCI Ipsi, 15 mins.
Where [10] appears, read: icilin 2500 μM applied to paw, CCI Ipsi, 50 mins.
Setting [11] is: icilin 5000 μM applied to paw, CCI Con, 15 mins.
[12] abbreviates: icilin 5000 μM applied to paw, CCI Con, 50 mins.
Where [13] appears, read: icilin 5000 μM applied to paw, CCI Ipsi, 15 mins.
Where [14] appears, read: icilin 5000 μM applied to paw, CCI Ipsi, 50 mins.
[15] abbreviates: icilin topical, antisense osmotic pumps depleted, 18 days following surgery.

As for `CC(C)[C@@H]1CC[C@@H](C)C[C@H]1O` [(−)-menthol, 1R,2S,5R-(−)-menthol], the “reversal of sensitised responses” value (topical, (−)-menthol 4 mM, isomenthol and (+)-menthol 8 mM and 16 mM) is recorded as “Specific reversal of sensitised responses”.
With `O=C1NC(c2cccc([N+](=O)[O-])c2)=CCN1c1ccccc1O` [icilin, 1-(2′-hydroxyphenyl)-4-(3″-nitrophenyl)-1,2,3,6-tetrahydropyrimidin-2-one], the “reversal of CCI-induced behavioural reflex sensitisation to thermal and mechanical stimuli” value (icilin 80 μM topical, 5 min, bath at 30° C.) is reported as “striking reversal”. Besides, the “% reversal of ipsilateral sensitisation, PWL” value runs as follows: under setting [1], 7.7±7.4%; under setting [2], 82.8±6.9%. For the same compound, the “% reversal of ipsilateral sensitisation, PWT” value is, setting by setting: under setting [1], 9.4±8.2%; under setting [2], 58.7±8.2%. The “analgesia on daily repeated application (Hargreaves' test)” value (icilin 200 μM topical over four successive days) is “consistently causes analgesia”. The “Mechanical PWT” value reads like this: under setting [3], 4530.1 ± 300.5 mN/mm^2; under setting [4], 4530.1 ± 300.5 mN/mm^2; under setting [5], 702.8 ± 185.3 mN/mm^2; under setting [6], 702.8 ± 185.3 mN/mm^2; under setting [7], 4454.9 ± 245.9 mN/mm^2; under setting [8], 4454.9 ± 245.9 mN/mm^2. Further, the “Mechanical PWT” value came to 651.9 ± 193.0 mN/mm^2 under setting [9]; 651.9 ± 193.0 mN/mm^2 under setting [10]; 2040.2 ± 115.2 mN/mm^2 under setting [11]; 4830.6 ± 0.0 mN/mm^2 under setting [12]; 412.2 ± 24.3 mN/mm^2 under setting [13]; 736.0 ± 26.3 mN/mm^2 under setting [14]. The “Thermal PWL” value was 16.1 ± 0.5 s under setting [3]; 15.2 ± 0.4 s under setting [4]; 16.4 ± 0.8 s under setting [5]; 8.6 ± 0.2 s under setting [6]; 16.8 ± 0.9 s under setting [7]; 15.3 ± 0.7 s under setting [8]. Also, the “Thermal PWL” value under setting [9] worked out at 16.4 ± 0.9 s; the “Thermal PWL” value under setting [10] amounted to 8.4 ± 0.6 s; the “Thermal PWL” value under setting [11] is reported as 16.1 ± 0.9 s; the “Thermal PWL” value under setting [12] was 13.4 ± 0.7 s; the “Thermal PWL” value under setting [13] is recorded as 16.7 ± 1.0 s; the “Thermal PWL” value under setting [14] came out at 7.2 ± 0.6 s. The “% reversal of sensitisation, PWL” value under setting [15] was 83.7±10.1%. In addition, under setting [15], the “% reversal of sensitisation, PWT” value is 54.0±7.2%.
